Data on one substance can be found in publication PMC2673211, “Nitric oxide activates ATP-sensitive potassium channels in mammalian sensory neurons: action by direct S-nitrosylation” (Molecular Pain, 2009).

The target of the test is T1, Kir6.2ΔC36 channels (Rattus norvegicus, UniProt P70673).
T1 construct: A truncated form of Kir6.2 lacking the last 36 amino acids at the C-terminus; expressed in transfected cells; host or cells: COS7 cells, pcDNA3.1(-) Kir6.2 alone, GFP cDNA co-transfected as a separate reporter
T1 sequence (P70673 1-354 limits assumed): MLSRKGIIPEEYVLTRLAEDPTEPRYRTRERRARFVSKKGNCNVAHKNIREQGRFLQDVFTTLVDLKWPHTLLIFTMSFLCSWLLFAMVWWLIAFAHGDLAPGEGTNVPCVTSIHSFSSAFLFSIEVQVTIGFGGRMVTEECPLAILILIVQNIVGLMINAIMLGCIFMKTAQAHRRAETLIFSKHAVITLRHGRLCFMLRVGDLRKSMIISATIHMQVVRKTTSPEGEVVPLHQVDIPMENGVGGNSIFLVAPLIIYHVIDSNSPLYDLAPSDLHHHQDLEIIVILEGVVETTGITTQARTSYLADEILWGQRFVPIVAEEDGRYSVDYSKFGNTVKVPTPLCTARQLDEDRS
The experiment in a line: Inside-out patch recording of truncated Kir6.2 channels expressed in COS7 cells. It counts as biochemical. The conditions noted are these: SNAP 1 mM in the presence of 1 mM [ATP]i; n = 6. How it is done:
KATP channel-deficient COS7 cells were plated at a density of 3 × 10^5/dish (35 mm in diameter) and cultured in Dulbecco's modified Eagle's medium supplemented with 10% fetal calf serum. Rat Kir6.2 (GenBank X97041) and rat SUR1 (GenBank X97279) cDNAs were used for expression study. A truncated form of Kir6.2 lacking the last 36 amino acids at the C-terminus was obtained by polymerase chain reaction amplification. Polymerase chain reaction products were cloned into the pCR3.1 vector by using the TA cloning system (Invitrogen Corp., Carlsbad, CA, USA) and then cloned into the pcDNA3.1 (-) vector (Invitrogen Corp.) for mammalian expression. […]
We recorded current passing through single channels in inside-out or cell-attached patch configurations. […]
We recorded single channel currents at room temperature (20–25°C) using an Axon CNS Multiclamp 700B amplifier, digitized them using an analog-to-digital converter (Axon CNS DigiData 1440A; Axon Instruments, Foster, CA), and stored them into a PC. […] Channel open probability (Po) was determined from the ratios of the area under the peaks in the amplitude histograms fitted by a Gaussian distribution. We calculated channel activity as NPo (where N is the number of observed channels in the patch) from data samples of either 30 s (in inside-out recordings), or 60 s (in cell-attached recordings), in the steady state. […]

S-nitroso-N-acetylpenicillamine [SNAP]: the “effect on Kir6.2ΔC36 currents” value is “fails to activate”.
